# In ChEMBL document CHEMBL3046063, “Synthesis and antimicrobial activity of 5-chloroindoline-2,3-dione derivatives” (2012):
# Key:
# Type in all cases: functional
# Bacillus spizizenii = test: Antimicrobial activity against Bacillus subtilis subsp. spizizenii ATCC 6633 after 24 hr by broth dilution method; conditions: ATCC 6633, 24 h
# [1] = system: Staphylococcus epidermidis; test: Antimicrobial activity against Staphylococcus epidermidis ATCC 12228 after 24 hr by broth dilution method; conditions: ATCC 12228, 24 h
# Micrococcus luteus = test: Antimicrobial activity against Micrococcus luteus ATCC 4698 after 24 hr by broth dilution method; conditions: ATCC 4698, 24 h
# Staphylococcus aureus = test: Antimicrobial activity against Staphylococcus aureus ATCC 25923 after 24 hr by broth dilution method; conditions: ATCC 25923, 24 h
# Staphylococcus hominis = test: Antimicrobial activity against Staphylococcus hominis ATCC 27844 after 24 hr by broth dilution method; conditions: ATCC 27844, 24 h
# Bacillus pumilus = test: Antimicrobial activity against Bacillus pumilus ATCC 14884 after 24 hr by broth dilution method; conditions: ATCC 14884, 24 h
# Bacillus cereus = test: Antimicrobial activity against Bacillus cereus ATCC 11778 after 24 hr by broth dilution method; conditions: ATCC 11778, 24 h
# Proteus vulgaris = test: Antimicrobial activity against Proteus vulgaris ATCC 13315 after 24 hr by broth dilution method; conditions: ATCC 13315, 24 h
# Proteus mirabilis = test: Antimicrobial activity against Proteus mirabilis ATCC 49565 after 24 hr by broth dilution method; conditions: ATCC 49565, 24 h
# Salmonella typhi = test: Antimicrobial activity against Salmonella enterica subsp. enterica serovar Typhi ATCC 19430 after 24 hr by broth dilution method; conditions: ATCC 19430, 24 h
# Klebsiella pneumoniae = test: Antimicrobial activity against Klebsiella pneumoniae ATCC 13883 after 24 hr by broth dilution method; conditions: ATCC 13883, 24 h
# Escherichia coli = test: Antimicrobial activity against Escherichia coli ATCC 25922 after 24 hr by broth dilution method; conditions: ATCC 25922, 24 h
# Pseudomonas aeruginosa = test: Antimicrobial activity against Pseudomonas aeruginosa ATCC 10145 after 24 hr by broth dilution method; conditions: ATCC 10145, 24 h
# Aspergillus niger = test: Antimicrobial activity against Aspergillus niger ATCC 9142 after 24 hr by broth dilution method; conditions: ATCC 9142, 24 h
# Aspergillus awamori = test: Antimicrobial activity against Aspergillus awamori ATCC 22342 after 24 hr by broth dilution method; conditions: ATCC 22342, 24 h
# Candida albicans = test: Antimicrobial activity against Candida albicans ATCC 10231 after 24 hr by broth dilution method; conditions: ATCC 10231, 24 h
# Alternaria alternata = test: Antimicrobial activity against Alternaria alternata ATCC 66868 after 24 hr by broth dilution method; conditions: ATCC 66868, 24 h
# Microsporum canis = test: Antimicrobial activity against Arthroderma otae ATCC 11622 after 24 hr by broth dilution method; conditions: ATCC 11622, 24 h
# Rhizoctonia solani = test: Antimicrobial activity against Rhizoctonia solani ATCC 76131 after 24 hr by broth dilution method; conditions: ATCC 76131, 24 h
# Trichophyton longifusum = test: Antimicrobial activity against Trichophyton longifusum ATCC 22397 after 24 hr by broth dilution method; conditions: ATCC 22397, 24 h
# Fusarium solani = test: Antimicrobial activity against Fusarium solani ATCC 38136 after 24 hr by broth dilution method; conditions: ATCC 38136, 24 h
# Trichoderma viride = test: Antimicrobial activity against Hypocrea rufa ATCC 52440 after 24 hr by broth dilution method; conditions: ATCC 52440, 24 h
# Aspergillus flavus = test: Antimicrobial activity against Aspergillus flavus ATCC 15517 after 24 hr by broth dilution method; conditions: ATCC 15517, 24 h
# Aspergillus fumigatus = test: Antimicrobial activity against Aspergillus fumigatus after 24 hr by broth dilution method
Compound,MIC (Bacillus spizizenii) [µg/mL],MIC [1] [µg/mL],MIC (Micrococcus luteus) [µg/mL],MIC (Staphylococcus aureus) [µg/mL],MIC (Staphylococcus hominis) [µg/mL],MIC (Bacillus pumilus) [µg/mL],MIC (Bacillus cereus) [µg/mL],MIC (Proteus vulgaris) [µg/mL],MIC (Proteus mirabilis) [µg/mL],MIC (Salmonella typhi) [µg/mL],MIC (Klebsiella pneumoniae) [µg/mL],MIC (Escherichia coli) [µg/mL],MIC (Pseudomonas aeruginosa) [µg/mL],MIC (Aspergillus niger) [µg/mL],MIC (Aspergillus awamori) [µg/mL],MIC (Candida albicans) [µg/mL],MIC (Alternaria alternata) [µg/mL],MIC (Microsporum canis) [µg/mL],MIC (Rhizoctonia solani) [µg/mL],MIC (Trichophyton longifusum) [µg/mL],also measured
O=C1Nc2ccc(Cl)cc2/C1=N/N1C(=O)CSC1c1ccccc1 (stereo not drawn),75,37.5,37.5,37.5,75,75,37.5,75,75,75,37.5,37.5,37.5,18.8,18.8,9.37,37.5,37.5,37.5,18.8,MIC (Fusarium solani): 18.8 µg/mL; MIC (Trichoderma viride): 37.5 µg/mL; MIC (Aspergillus flavus): 37.5 µg/mL; MIC (Aspergillus fumigatus): 18.8 µg/mL
O=C1Nc2ccc(Cl)cc2/C1=N/N1C(=O)CSC1c1ccccc1Cl (stereo not drawn),300,150,300,300,150,150,150,300,300,150,150,150,150,75,150,150,150,75,75,150,MIC (Fusarium solani): 150 µg/mL; MIC (Trichoderma viride): 75 µg/mL; MIC (Aspergillus flavus): 150 µg/mL; MIC (Aspergillus fumigatus): 150 µg/mL
O=C1Nc2ccc(Cl)cc2/C1=N/N1C(=O)CSC1c1ccc(Cl)cc1 (stereo not drawn),37.5,18.8,18.8,18.8,9.37,9.37,9.37,37.5,18.8,9.37,18.8,9.37,9.37,4.68,9.37,4.68,4.68,4.68,9.37,4.68,MIC (Fusarium solani): 9.37 µg/mL; MIC (Trichoderma viride): 9.37 µg/mL; MIC (Aspergillus flavus): 4.68 µg/mL; MIC (Aspergillus fumigatus): 4.68 µg/mL
COc1cccc(C2SCC(=O)N2/N=C2\C(=O)Nc3ccc(Cl)cc32)c1 (stereo not drawn),75,75,75,37.5,37.5,75,75,37.5,37.5,75,37.5,75,75,37.5,37.5,18.8,18.8,18.8,18.8,37.5,MIC (Fusarium solani): 18.8 µg/mL; MIC (Trichoderma viride): 18.8 µg/mL; MIC (Aspergillus flavus): 18.8 µg/mL; MIC (Aspergillus fumigatus): 37.5 µg/mL
O=C1Nc2ccc(Cl)cc2/C1=N/N1C(=O)CSC1c1ccccc1O (stereo not drawn),150,300,150,300,150,150,150,150,300,150,300,300,300,150,150,75,75,75,150,150,MIC (Fusarium solani): 150 µg/mL; MIC (Trichoderma viride): 150 µg/mL; MIC (Aspergillus flavus): 75 µg/mL; MIC (Aspergillus fumigatus): 150 µg/mL
O=C1Nc2ccc(Cl)cc2/C1=N/N1C(=O)CSC1c1ccc(O)cc1 (stereo not drawn),18.8,9.37,18.8,18.8,9.37,9.37,18.8,9.37,18.8,9.37,9.37,18.8,9.37,4.68,4.68,4.68,9.37,9.37,9.37,4.68,MIC (Fusarium solani): 4.68 µg/mL; MIC (Trichoderma viride): 4.68 µg/mL; MIC (Aspergillus flavus): 9.37 µg/mL; MIC (Aspergillus fumigatus): 4.68 µg/mL
CN(C)c1ccc(C2SCC(=O)N2/N=C2\C(=O)Nc3ccc(Cl)cc32)cc1 (stereo not drawn),18.8,18.8,18.8,9.37,9.37,9.37,18.8,18.8,9.37,9.37,18.8,18.8,18.8,4.68,9.37,9.37,4.68,9.37,4.68,4.68,MIC (Fusarium solani): 4.68 µg/mL; MIC (Trichoderma viride): 4.68 µg/mL; MIC (Aspergillus flavus): 4.68 µg/mL; MIC (Aspergillus fumigatus): 4.68 µg/mL
COc1ccc(C2SCC(=O)N2/N=C2\C(=O)Nc3ccc(Cl)cc32)cc1 (stereo not drawn),9.37,9.37,18.8,18.8,18.8,18.8,18.8,37.5,9.37,9.37,9.37,18.8,18.8,4.68,4.68,4.68,9.37,9.37,9.37,4.68,MIC (Fusarium solani): 4.68 µg/mL; MIC (Trichoderma viride): 4.68 µg/mL; MIC (Aspergillus flavus): 9.37 µg/mL; MIC (Aspergillus fumigatus): 4.68 µg/mL
O=C1Nc2ccc(Cl)cc2/C1=N/N1C(=O)CSC1c1ccc(F)cc1 (stereo not drawn),18.8,9.37,18.8,18.8,9.37,9.37,9.37,18.8,18.8,9.37,18.8,18.8,9.37,9.37,9.37,9.37,9.37,9.37,4.68,4.68,MIC (Fusarium solani): 4.68 µg/mL; MIC (Trichoderma viride): 4.68 µg/mL; MIC (Aspergillus flavus): 9.37 µg/mL; MIC (Aspergillus fumigatus): 4.68 µg/mL
O=C1Nc2ccc(Cl)cc2/C1=N/N1C(=O)CSC1c1ccc([N+](=O)[O-])cc1 (stereo not drawn),37.5,18.8,9.37,9.37,9.37,18.8,18.8,37.5,18.8,18.8,9.37,18.8,9.37,4.68,9.37,9.37,4.68,4.68,9.37,4.68,MIC (Fusarium solani): 9.37 µg/mL; MIC (Trichoderma viride): 9.37 µg/mL; MIC (Aspergillus flavus): 4.68 µg/mL; MIC (Aspergillus fumigatus): 4.68 µg/mL
O=C1Nc2ccc(Cl)cc2/C1=N/N1C(=O)CSC1c1ccco1 (stereo not drawn),37.5,75,75,75,37.5,37.5,75,75,75,37.5,75,75,75,37.5,37.5,18.8,37.5,37.5,18.8,18.8,MIC (Fusarium solani): 37.5 µg/mL; MIC (Trichoderma viride): 37.5 µg/mL; MIC (Aspergillus flavus): 37.5 µg/mL; MIC (Aspergillus fumigatus): 18.8 µg/mL
O=C1Nc2ccc(Cl)cc2/C1=N/N1C(=O)C(Cl)C1c1ccccc1 (stereo not drawn),37.5,37.5,37.5,75,75,37.5,37.5,37.5,37.5,75,37.5,37.5,37.5,18.8,37.5,37.5,18.8,37.5,18.8,37.5,MIC (Fusarium solani): 18.8 µg/mL; MIC (Trichoderma viride): 18.8 µg/mL; MIC (Aspergillus flavus): 18.8 µg/mL; MIC (Aspergillus fumigatus): 37.5 µg/mL
